Laboratory results reported in patent US7091174B2, “Caloxins” (McMaster University, priority 2000, dated 2006).
Ends that are not written are not given here.

Key:
[1] = target: T1, PM Ca^2+-pump 140 kDa acylphosphate intermediate (Homo sapiens, UniProt P23634); experiment: Ca2+-dependent acylphosphate formation from 32P-gamma-ATP in erythrocyte leaky ghosts; assay type: biochemical; details: 3.4 mM peptide, FIG. 1C
T1 construct: from tissue; host or cells: human erythrocyte leaky ghosts
Protocol: FIG. 1C is gel showing acylphosphate formation with 3.4 mM caloxin 2A1 or a random peptide. The acylphosphate reaction was carried out and samples analyzed by acid gel electrophoresis as previously described (Grover et al. (1988); Wuytack et al. (1984)). EGTA=1 mM, and CaCl2=0.05 mM.
(§1) The present invention includes all caloxins isolated according to the method of the invention. Caloxins can be tested for their ability to inhibit the plasma membrane Ca^2+-pump using various assays. In particular, PM Ca^2+ pump is a Ca^2+—Mg^2+-ATPase that binds ATP in presence of Ca^2+ to form an acylphosphate which is then hydrolysed upon Ca^2+ translocation (Guerini (1998)). The effect of caloxins on PM Ca^2+ pump can be tested in two assays using human erythrocyte leaky ghosts: Ca^2+—Mg^2+-ATPase and acylphosphate formation. In particular the inventors have shown that caloxin 2A-1 inhibits erythrocyte leaky ghost Ca^2+—Mg^2+-ATPase (FIG. 1A) producing 50% inhibition at 0.4±0.1 mM. Caloxin 2A-1 inhibits the PM Ca^2+-pump selectively. At a concentration of 0.9 mM, caloxin 2A1 inhibits the erythrocyte ghost Ca^2+—Mg^2+-ATPase by 78±4% but with no effect on Mg^2+-ATPase or Na^+—K^+-ATPase in the ghosts or the Ca^2+—Mg^2+-ATPase in skeletal muscle sarcoplasmic reticulum (FIG. 1B). […]

[2] = target: T2, erythrocyte leaky ghost Ca^2+—Mg^2+-ATPase (PM Ca^2+ pump) (Homo sapiens, UniProt P23634); experiment: Ca2+-Mg2+-ATPase assay with human erythrocyte leaky ghosts (fluorometric coupled enzyme assay); assay type: biochemical
T2 construct: Human erythrocyte leaky ghosts (Jarrett et al. (1978)) were assayed for ATPase; from tissue; host or cells: human erythrocyte leaky ghosts prepared from human blood
Protocol: FIG. 1A is a graph showing Ca^2+—Mg^2+-ATPhase inhibition by caloxin 2A1. Human erythrocyte leaky ghosts (Jarrett et al. (1978)) were assayed for ATPase as described previously (Niggli et al. (1981); Grover (1988)) but by fluorometry. The drawn curve is from a total of 32 data points. Error bars where shown are SEM values.
The present invention includes all caloxins isolated according to the method of the invention. Caloxins can be tested for their ability to inhibit the plasma membrane Ca^2+-pump using various assays. In particular, PM Ca^2+ pump is a Ca^2+—Mg^2+-ATPase that binds ATP in presence of Ca^2+ to form an acylphosphate which is then hydrolysed upon Ca^2+ translocation (Guerini (1998)). The effect of caloxins on PM Ca^2+ pump can be tested in two assays using human erythrocyte leaky ghosts: Ca^2+—Mg^2+-ATPase and acylphosphate formation. In particular the inventors have shown that caloxin 2A-1 inhibits erythrocyte leaky ghost Ca^2+—Mg^2+-ATPase (FIG. 1A) producing 50% inhibition at 0.4±0.1 mM. Caloxin 2A-1 inhibits the PM Ca^2+-pump selectively. At a concentration of 0.9 mM, caloxin 2A1 inhibits the erythrocyte ghost Ca^2+—Mg^2+-ATPase by 78±4% but with no effect on Mg^2+-ATPase or Na^+—K^+-ATPase in the ghosts or the Ca^2+—Mg^2+-ATPase in skeletal muscle sarcoplasmic reticulum (FIG. 1B). The inhibition is selective to caloxin 2A1 because 0.9 mM of a peptide with randomized caloxin 2A1 sequence (SWSSFPGSGGVSNPN-amide, SEQ.ID.NO.5) has no effect (FIG. 1B) neither does the large mixture of peptides contained in the casein pancreatic hydrolysate (data not shown). Thus, caloxin 2A1 is selective in that it inhibits the PM Ca^2+-pump and not other ATPases. […] Caloxin 2A1 was selected by binding to a PMCA1 sequence but it inhibits PM Ca^2+-pump in erythrocyte ghosts which express mainly PMCA4. This finding is consistent with the high degree of similarity between sequences of PMCA genes in this domain (Swiss Protein Bank accession numbers P20020, Q01814, Q16720, P23634) although we have not ruled out that caloxin 2A1 has different affinities for each isoform. The second PM Ca^2+-pump assay consisted of Ca^2+-dependent formation of the acid stable 140 kDa acylphosphate intermediate from ^32P-γ-ATP in erythrocyte leaky ghosts.
1.2. Ca^2+—Mg^2+-ATPase assay with human erythrocyte leaky ghosts: A major hurdle was the lack of an appropriate assay. The difficulties were: (a) calmodulin needed for the PM Ca^2+ pump activity binds on the cytosolic surface of the pump protein and caloxins by definition bind on the outside surface, (b) most tissues have very active ecto-Mg^2+-ATPase and an ER Ca^2+—Mg^2+-ATPase—the latter can be inhibited by thapsigargin but the former poses a major problem. Erythrocyte ghosts contain mostly plasma membrane. Finally we used human erythrocyte ghosts which have low ecto-Mg^2+-ATPase. Fluorometric coupled enzyme assays are more sensitive. We purchased microcuvettes (100–150 μl) for our fluorometer (SPEX Fluorolog 112) with a heated chamber (37° C.) and made the appropriate cuvette adapter. We first monitor basal Mg^2+-ATPhase as slope for the disappearance of NADH fluorescence (ex=340, em=440 nm) in a solution containing 0.2–0.4 mg ghost protein, 0.1 mM ouabain, 100 mM NaCl, 20 mM KCl, 6 mM MgCl2, 30 mM imidazole-HCl pH 7.0, 0.5 mM EDTA, 0.6 mM NADH, 1 mM pyruvate enol phosphate, excess pyruvate kinase-[…], 0.5 mM ATP, 0.5 mM EGTA and 4 ug/ml calmodulin. […] Na^+—K^+-ATPase can be monitored without CaCl2 and ouabain.

pig coronary artery = experiment: Endothelium dependent relaxation of pig coronary artery pre-contracted with KCl; details: pig coronary artery precontracted with KCl, FIG. 3
PMCA2b = experiment: Ca2+-Mg2+-ATPase activity in microsomes from SF9 cells expressing PMCA2; assay type: biochemical; details: 1.87 mM; two experiments
Description: (§2) PM Ca^2+-pump isoforms are encoded by 4 different genes. The inventors determined the effects of caloxin 2A1 on different isoforms. Cos M6 cells were transfected with this DNA using Fugene (purchased from Roche). Microsomes from SF9 cells expressing PMCA2 were a gift from Dr. A. Filoteo.
(§3) PMCA4 plasmid was transfected into COS-M6 cells. Thirty six to 48 hr later, microsomes were made from these cells and overexpression of the protein was confirmed using Western Blot. The Ca^2+—Mg^2+-ATPase activity in the microsomes was determined. The assay solutions included the following additional reagents: 0.05% Triton X-100, 5 mM sodium azide and 10 uM cyclopiazonic acid. Results: In a total of 22 determinations, the inhibition produced by 0.46,0.94 and 1.87 mM caloxin 2A1 on PMCA4 was 29, 47 and 58%, respectively.

[3] = system: Na^+—K^+-ATPase in the ghosts; experiment: Na+-K+-ATPase in erythrocyte ghosts; assay type: biochemical, human; details: 0.9 mM
Description: (§4) FIG. 1B is a bar graph showing the selectivity of caloxin 2A1 for inhibition of PM Ca^2+—Mg^2+-ATPase using caloxin 2A1 or a random peptide (RP). G=ghosts and S=skeletal muscle sarcoplasmic reticulum, Type of ATPhase activity monitored is shown as Ca^2+—Mg^2+, Mg^2+ or Na^+—K^+-ATPase.
(§5) The present invention includes all caloxins isolated according to the method of the invention. Caloxins can be tested for their ability to inhibit the plasma membrane Ca^2+-pump using various assays. In particular, PM Ca^2+ pump is a Ca^2+—Mg^2+-ATPase that binds ATP in presence of Ca^2+ to form an acylphosphate which is then hydrolysed upon Ca^2+ translocation (Guerini (1998)). The effect of caloxins on PM Ca^2+ pump can be tested in two assays using human erythrocyte leaky ghosts: Ca^2+—Mg^2+-ATPase and acylphosphate formation. […]
(§6) 1.2. […] We first monitor basal Mg^2+-ATPhase as slope for the disappearance of NADH fluorescence (ex=340, em=440 nm) in a solution containing 0.2–0.4 mg ghost protein, 0.1 mM ouabain, 100 mM NaCl, 20 mM KCl, 6 mM MgCl2, 30 mM imidazole-HCl pH 7.0, 0.5 mM EDTA, 0.6 mM NADH, 1 mM pyruvate enol phosphate, excess pyruvate kinase-[…], 0.5 mM ATP, 0.5 mM EGTA and 4 ug/ml calmodulin. […] Na^+—K^+-ATPase can be monitored without CaCl2 and ouabain.

[4] = system: T3, Ca^2+—Mg^2+-ATPase in skeletal muscle sarcoplasmic reticulum; experiment: Ca2+-Mg2+-ATPase in skeletal muscle sarcoplasmic reticulum; assay type: biochemical; details: 0.9 mM
T3 construct: G=ghosts and S=skeletal muscle sarcoplasmic reticulum; from tissue; host or cells: skeletal muscle sarcoplasmic reticulum
Description: as §4, §1

rat aortic rings = experiment: Endothelium dependent relaxation of rat aorta rings precontracted with phenylephrine; details: precontracted with 0.5 μM phenylephrine, 0.34 mM caloxin 2A1, reversed by L-NAME
Protocol: Rat aorta rings were hung in organ bath as previously described. The rings were contracted with submaximum (0.5 μM) phenylephrine before adding 0.34 mM caloxin 2A1 and 0.1 mM L-nitroarginylmethyl ester) as shown. Each experiment was replicated at least four times.
Inhibiting the PM Ca^2+ pump in vascular endothelium should increase cytosolic Ca^2+, thereby activating endothelial nitric oxide synthase to relax arteries (Rees et al. (1990); Sato et al. (1990)). […] Thus caloxin 2A1 produced the biological effect in the endothelium which was expected from its inhibiting PM Ca^2+-pump.
1.3. […] We anesthetized a rats by methoxyfluorane (Metofane) inhalation and removed its thoracic aorta as 3 mm rings. These tissues relax to 1 μM carbachol after they have been contracted with phenylephrine (0.5 to 2 μM). We initially tried to do these experiments in Na^+-free solution but the tissues gave very poor contractions to phenylephrine. In Na^+-free solution, the tissues contracted to 20–80 mM KCl but relaxation with carbachol was poor. We reverted to using phenylephrine but in Na^+-containing Krebs' solution.

[5] = system: Mg^2+-ATPase in the ghosts; experiment: Mg2+-ATPase in erythrocyte ghosts; assay type: biochemical, human; details: 0.9 mM
Description: as §4, §5, §6

PMCA4 = target: T4, PMCA4 (Homo sapiens, UniProt P23634); experiment: Ca2+-Mg2+-ATPase activity in microsomes of COS-M6 cells transfected with PMCA4; assay type: biochemical; details: read-out: inhibition of PMCA4 Ca^2+—Mg^2+-ATPase
T4 construct: expressed in transfected cells; host or cells: COS-M6 cells, microsomes
T4 sequence (P23634 1-1241): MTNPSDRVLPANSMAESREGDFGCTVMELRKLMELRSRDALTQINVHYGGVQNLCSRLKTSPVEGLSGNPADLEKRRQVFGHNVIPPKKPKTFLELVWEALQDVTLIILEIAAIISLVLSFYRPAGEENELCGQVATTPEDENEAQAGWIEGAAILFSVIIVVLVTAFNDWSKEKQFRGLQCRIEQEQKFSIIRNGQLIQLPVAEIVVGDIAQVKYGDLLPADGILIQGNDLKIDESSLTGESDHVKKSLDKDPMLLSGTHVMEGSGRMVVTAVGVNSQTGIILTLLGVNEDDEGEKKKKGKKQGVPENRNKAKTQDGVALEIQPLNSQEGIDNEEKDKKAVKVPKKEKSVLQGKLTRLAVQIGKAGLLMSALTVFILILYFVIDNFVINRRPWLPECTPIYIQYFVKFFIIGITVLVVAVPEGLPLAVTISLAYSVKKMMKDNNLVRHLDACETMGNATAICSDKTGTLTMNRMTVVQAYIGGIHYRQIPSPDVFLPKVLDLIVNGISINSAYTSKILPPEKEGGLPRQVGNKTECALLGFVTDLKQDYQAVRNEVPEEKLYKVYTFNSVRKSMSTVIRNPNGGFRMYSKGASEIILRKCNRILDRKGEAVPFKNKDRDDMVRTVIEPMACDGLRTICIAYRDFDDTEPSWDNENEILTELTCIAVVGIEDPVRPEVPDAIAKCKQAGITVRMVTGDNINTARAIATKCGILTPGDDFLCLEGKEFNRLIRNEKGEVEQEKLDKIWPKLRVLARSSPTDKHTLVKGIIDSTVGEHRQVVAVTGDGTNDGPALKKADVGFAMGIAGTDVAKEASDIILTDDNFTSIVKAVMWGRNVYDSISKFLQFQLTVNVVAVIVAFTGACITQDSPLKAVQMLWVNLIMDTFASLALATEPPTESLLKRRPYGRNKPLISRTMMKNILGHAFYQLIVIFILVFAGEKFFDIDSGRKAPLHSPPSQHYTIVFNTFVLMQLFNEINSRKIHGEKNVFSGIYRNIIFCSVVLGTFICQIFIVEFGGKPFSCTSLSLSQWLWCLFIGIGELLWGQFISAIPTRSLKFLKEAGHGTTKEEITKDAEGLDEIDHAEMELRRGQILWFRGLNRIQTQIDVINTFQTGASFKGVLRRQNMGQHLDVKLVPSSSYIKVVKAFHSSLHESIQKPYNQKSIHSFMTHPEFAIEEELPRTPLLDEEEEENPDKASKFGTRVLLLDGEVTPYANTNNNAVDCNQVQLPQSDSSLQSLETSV
Description: as §2, §3

T1 sequence (P23634 1-1205 isoform P23634-6): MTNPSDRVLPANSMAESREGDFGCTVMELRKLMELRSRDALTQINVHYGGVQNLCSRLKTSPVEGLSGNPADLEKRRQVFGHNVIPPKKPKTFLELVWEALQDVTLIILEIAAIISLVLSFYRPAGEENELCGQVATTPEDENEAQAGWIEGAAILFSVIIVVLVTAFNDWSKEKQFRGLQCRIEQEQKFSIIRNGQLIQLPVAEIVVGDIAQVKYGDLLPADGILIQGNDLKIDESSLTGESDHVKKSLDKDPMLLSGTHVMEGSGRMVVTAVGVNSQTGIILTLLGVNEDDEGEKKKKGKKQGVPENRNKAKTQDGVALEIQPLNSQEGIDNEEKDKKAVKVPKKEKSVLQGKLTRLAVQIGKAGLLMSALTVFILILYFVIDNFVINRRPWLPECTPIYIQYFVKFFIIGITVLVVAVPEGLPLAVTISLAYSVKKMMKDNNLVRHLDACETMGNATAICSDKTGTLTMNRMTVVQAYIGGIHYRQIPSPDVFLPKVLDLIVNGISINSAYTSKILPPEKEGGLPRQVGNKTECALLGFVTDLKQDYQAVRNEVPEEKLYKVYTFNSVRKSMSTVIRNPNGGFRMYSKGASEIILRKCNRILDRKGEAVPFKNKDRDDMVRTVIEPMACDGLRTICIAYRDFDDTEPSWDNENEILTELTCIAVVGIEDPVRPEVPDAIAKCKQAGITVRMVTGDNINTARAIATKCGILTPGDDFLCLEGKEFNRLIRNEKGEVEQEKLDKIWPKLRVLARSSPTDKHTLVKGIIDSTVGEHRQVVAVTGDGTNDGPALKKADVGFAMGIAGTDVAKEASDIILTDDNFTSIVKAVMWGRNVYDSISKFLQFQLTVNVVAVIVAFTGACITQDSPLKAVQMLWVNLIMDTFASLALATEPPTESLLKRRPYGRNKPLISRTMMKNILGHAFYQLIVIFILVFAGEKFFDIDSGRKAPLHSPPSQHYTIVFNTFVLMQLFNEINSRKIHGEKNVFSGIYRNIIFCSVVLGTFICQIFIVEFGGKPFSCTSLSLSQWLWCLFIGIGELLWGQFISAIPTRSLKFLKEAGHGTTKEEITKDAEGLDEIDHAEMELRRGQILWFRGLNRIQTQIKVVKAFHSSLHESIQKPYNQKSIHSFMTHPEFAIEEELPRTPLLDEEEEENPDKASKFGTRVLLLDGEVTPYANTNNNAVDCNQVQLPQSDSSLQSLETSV
T3 sequence (O14983 whole entry): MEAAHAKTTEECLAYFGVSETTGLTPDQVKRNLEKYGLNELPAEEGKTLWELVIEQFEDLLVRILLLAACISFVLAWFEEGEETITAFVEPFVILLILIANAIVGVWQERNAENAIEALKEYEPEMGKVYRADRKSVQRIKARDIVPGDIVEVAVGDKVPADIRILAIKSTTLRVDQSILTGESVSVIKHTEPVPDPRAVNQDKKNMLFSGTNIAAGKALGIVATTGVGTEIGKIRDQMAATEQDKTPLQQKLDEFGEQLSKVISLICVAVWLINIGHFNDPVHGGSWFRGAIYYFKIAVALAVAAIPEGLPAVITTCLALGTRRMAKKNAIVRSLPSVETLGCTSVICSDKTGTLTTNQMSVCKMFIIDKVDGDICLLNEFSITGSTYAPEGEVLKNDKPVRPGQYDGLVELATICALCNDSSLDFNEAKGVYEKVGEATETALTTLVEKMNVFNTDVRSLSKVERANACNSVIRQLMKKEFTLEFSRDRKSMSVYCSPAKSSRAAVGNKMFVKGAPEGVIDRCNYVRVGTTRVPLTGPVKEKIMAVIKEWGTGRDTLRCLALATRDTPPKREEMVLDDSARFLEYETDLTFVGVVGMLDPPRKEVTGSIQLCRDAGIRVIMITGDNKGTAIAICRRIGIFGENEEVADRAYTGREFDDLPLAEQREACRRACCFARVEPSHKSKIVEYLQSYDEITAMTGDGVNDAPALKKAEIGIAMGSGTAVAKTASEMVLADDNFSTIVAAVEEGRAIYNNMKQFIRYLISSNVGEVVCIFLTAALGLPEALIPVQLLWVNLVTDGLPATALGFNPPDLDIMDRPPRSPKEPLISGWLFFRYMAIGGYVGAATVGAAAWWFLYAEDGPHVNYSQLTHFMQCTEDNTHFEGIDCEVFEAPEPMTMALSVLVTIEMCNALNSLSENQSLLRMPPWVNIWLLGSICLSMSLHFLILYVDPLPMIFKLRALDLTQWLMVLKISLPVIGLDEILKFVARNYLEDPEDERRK

Substance	inhibition of acylphosphate formation [1]	effect on erythrocyte ghost Ca^2+—Mg^2+-ATPase (in words) ([2]; 0.9 mM peptide, FIG. 1B)	endothelium dependent relaxation of coronary arteries (pig coronary artery)	endothelium dependent relaxation of coronary arteries (pig coronary artery; listed as Caloxin 3A1)	effect on erythrocyte ghost Ca^2+—Mg^2+-ATPase (in words) ([2]; concentration not given)	average inhibition of PMCA2b (PMCA2b)	effect on Na^+—K^+-ATPase in the ghosts [3]	effect on Ca^2+—Mg^2+-ATPase in skeletal muscle sarcoplasmic reticulum [4]	relaxation of rat aortic rings (rat aortic rings)	relaxation of rat aortic rings (rat aortic rings; listed as Caloxin 2A1)	effect on Mg^2+-ATPase in the ghosts [5]	inhibition at 460 µM (PMCA4; 0.46 mM)	inhibition at 940 µM (PMCA4; 0.94 mM)	inhibition at 1870 µM (PMCA4; 1.87 mM)	inhibition of erythrocyte ghost Ca^2+—Mg^2+-ATPase ([2]; 0.9 mM peptide)	IC50 ([2]; human erythrocyte leaky ghosts, read-out: concentration producing 50% inhibition of erythrocyte leaky ghost Ca^2+—Mg^2+-ATPase)
SWSSFPGSGGVSNPN-amide (SWSSFPGSGGVSNPN-NH2; listed as Homo sapiens) [randomized peptide, reference compound]	does not	no effect														
Acetyl-DSHINNEPSRRRGGGK (Ac-DSHINNEPSRRRGGGK; listed as Homo sapiens) [caloxin 3A1, peptide isolated by phage display screening against PMCA874]			endothelium dependent relaxation	produces an endothelium dependent relaxation	inhibits											
VSNSNWPSFPSSGGG-NH2 [caloxin 2A1, VSNSNWPSFPSSGGG-amide]	inhibits the acylphosphate formation	significant (p<0.05) inhibition				46%	no effect	no effect	produced a relaxation	relaxed the aortic rings	no effect	29%	47%	58%	78±4%	400 ± 100 µM
